Measurements as given in ChEMBL document CHEMBL1909560, “Design and synthesis of a library of chemokine antagonists” (Bioorg Med Chem Lett, 2011).

How the values were obtained:
Format in all cases: cell-based
[1] = target: T1, C-C chemokine receptor type 1 (Homo sapiens, UniProt P32246); assay: Displacement of [125I]-MIP-1alpha 125I]-MCP1 from CCR1 expressed in CHO-K1 cells by scintillation proximity assay
T1 sequence (P32246 whole entry): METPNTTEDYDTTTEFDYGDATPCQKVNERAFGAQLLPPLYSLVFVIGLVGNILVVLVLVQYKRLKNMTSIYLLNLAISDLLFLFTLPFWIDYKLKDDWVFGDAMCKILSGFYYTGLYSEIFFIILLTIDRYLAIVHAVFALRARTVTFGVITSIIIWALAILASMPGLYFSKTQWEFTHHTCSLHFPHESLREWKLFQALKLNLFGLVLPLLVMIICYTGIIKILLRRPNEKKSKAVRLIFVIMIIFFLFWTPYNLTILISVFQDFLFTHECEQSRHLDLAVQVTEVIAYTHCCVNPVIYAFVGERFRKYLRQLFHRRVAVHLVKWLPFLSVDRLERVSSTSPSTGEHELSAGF

[2] = target: C-C chemokine receptor type 2 (Homo sapiens, UniProt P41597); assay: Displacement of [125I]-MIP-1alpha 125I]-MCP1 from CCR2 expressed in CHO ducX#98 cells by scintillation proximity assay
Sequence of C-C chemokine receptor type 2 (P41597 whole entry): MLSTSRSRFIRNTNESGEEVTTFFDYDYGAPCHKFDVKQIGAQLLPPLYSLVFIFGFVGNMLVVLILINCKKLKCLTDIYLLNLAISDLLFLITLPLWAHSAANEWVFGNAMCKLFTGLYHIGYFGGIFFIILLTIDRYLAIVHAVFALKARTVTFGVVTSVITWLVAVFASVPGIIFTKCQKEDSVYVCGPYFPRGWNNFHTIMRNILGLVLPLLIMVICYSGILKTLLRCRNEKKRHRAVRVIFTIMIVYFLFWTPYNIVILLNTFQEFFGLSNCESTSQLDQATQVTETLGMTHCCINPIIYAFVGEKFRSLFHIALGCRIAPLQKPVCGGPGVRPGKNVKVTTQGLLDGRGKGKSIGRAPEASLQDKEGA

[3] = target: T2, C-C chemokine receptor type 3 (Homo sapiens, UniProt P51677); assay: Displacement of [125I]-eotaxin from CCR3 expressed in RBL-2H3 cells by scintillation proximity assay
T2 sequence (P51677 whole entry): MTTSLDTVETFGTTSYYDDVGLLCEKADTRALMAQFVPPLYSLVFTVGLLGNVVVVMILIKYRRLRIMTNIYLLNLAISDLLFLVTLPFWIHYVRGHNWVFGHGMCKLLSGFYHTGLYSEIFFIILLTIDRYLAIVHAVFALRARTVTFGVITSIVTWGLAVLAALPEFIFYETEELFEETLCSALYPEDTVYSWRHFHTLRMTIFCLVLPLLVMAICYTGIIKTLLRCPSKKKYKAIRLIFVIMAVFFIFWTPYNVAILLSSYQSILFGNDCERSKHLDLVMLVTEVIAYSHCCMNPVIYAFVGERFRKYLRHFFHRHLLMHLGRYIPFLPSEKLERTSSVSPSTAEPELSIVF

[4] = target: C-C chemokine receptor type 5 (Homo sapiens, UniProt P51681); assay: Displacement of [125I]-MIP-1- alpha from CCR5 expressed in CHO K1 cells by scintillation proximity assay
Sequence of C-C chemokine receptor type 5 (P51681 whole entry): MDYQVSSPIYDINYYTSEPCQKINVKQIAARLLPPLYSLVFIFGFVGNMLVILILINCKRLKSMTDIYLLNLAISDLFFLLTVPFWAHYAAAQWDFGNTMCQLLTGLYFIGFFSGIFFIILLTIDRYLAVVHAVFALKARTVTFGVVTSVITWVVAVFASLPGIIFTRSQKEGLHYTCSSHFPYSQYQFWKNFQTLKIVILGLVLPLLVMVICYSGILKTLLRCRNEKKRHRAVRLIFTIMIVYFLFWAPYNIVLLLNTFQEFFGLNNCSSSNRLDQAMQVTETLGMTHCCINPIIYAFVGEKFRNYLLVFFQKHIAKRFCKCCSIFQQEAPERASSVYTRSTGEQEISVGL

| IC50 [3] | IC50 [4] | Compound | other results |
| --- | --- | --- | --- |
| – | – | Cc1noc(C)c1S(=O)(=O)NCCCN1CCC(O)(c2ccc(Cl)cc2)CC1 | IC50 [1]: 261 nM |
| – | – | O=C(NCCCCN1CCC(Oc2ccc(F)cc2)C1)NCc1ccc(Br)cc1 (configuration not stated) | IC50 [1]: 387 nM |
| 1000 nM | – | O=C(NCCCN1CCC(c2ccc(F)cc2)CC1)C1=Cc2cc(Br)ccc2OCC1 | IC50 [2]: 925 nM |
| – | – | O=C(NCCCCN1CCC(Cc2ccc(F)cc2)CC1)Nc1ccc(OC(F)(F)F)cc1 | IC50 [2]: 1880 nM |
| 65 nM | – | COc1ccc(OC)c(S(=O)(=O)N2CCC(CN3CCN(Cc4ccc(F)cc4)CC3)CC2)c1 | – |
| 82 nM | – | COc1ccc(Cl)cc1NC(=O)NCCCCN(C)Cc1ccc(F)cc1 | – |
| 76 nM | – | O=C(NCCCCN1CCC(Oc2ccc(F)cc2)C1)Nc1ccc(F)c(F)c1 (configuration not stated) | – |
| – | 1000 nM | N#Cc1cccc(C(=O)NCCCN2CCC(COCc3ccc(F)cc3)CC2)c1 | – |
| 1190 nM | 2850 nM | COc1ccc(OC)c(S(=O)(=O)N2CCC(CN3CCC(Cc4ccc(F)cc4)CC3)CC2)c1 | – |
| – | 1300 nM | COc1ccc(C)cc1S(=O)(=O)N1CCC(CN2CCC(c3ccc(F)cc3)CC2)CC1 | – |
